Like-named read-outs stand apart in the source and are kept apart here. Where a SMILES comes first, the peptide text is derived from it.
What was measured:
[1] = molecular target: T1, gp41 6-HB formation between N36 and C34 (Human immunodeficiency virus type 1 group M subtype B, UniProt P04578); assay: biochemical; type: biochemical, HIV-1; details: read-out: IC50, inhibition of 6-HB formation between C34 and N36; N36 1 μM preincubated with peptide 37 °C 30 min, then C34 1 μM; ELISA with mAb NC-1; triplicate
T1 construct: gp41 NHR (“N36”, 546-581); made in house; host or cells: chemical solid-phase FMOC synthesis
T1 sequence (P04578 546-581): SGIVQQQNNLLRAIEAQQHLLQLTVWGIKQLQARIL
Procedure: Inhibition of gp41 six-helix bundle formation by a testing peptide was determined with a sandwich ELISA described previously. […] A450 was determined by an ELISA reader (Ultra 384, Tecan).

[2] = test system: preexisting antibodies in sera from HIV-1-infected patients; assay: Sandwich ELISA: cross-reactivity of peptides with preexisting antibodies in HIV-1-infected patients; type: binding, human; details: peptide coated at 10 μg/ml, serially diluted sera, 37 °C 1 h, A450
Procedure: A sandwich ELISA was conducted to determine the cross-reactivity of the peptides with the preexisting antibodies in HIV-1-infected patients. […] The wells were then blocked with 1% gelatin, followed by addition of 50 μl of serially diluted sera from HIV-1-infected patients and incubation at 37 °C for 1 h. Then, HRP-labeled goat-anti-human IgG (Abcam, UK) and TMB were added sequentially. A450 was determined with an ELISA reader (Ultra 384, Tecan).

[3] = test system: HIV-1IIIB (subtype B, X4); details: read-out: IC50, inhibition of infection by HIV-1IIIB; MT-2 cells, 100 TCID50, p24 ELISA day 4; triplicate, repeated twice
Source text: (§1) Then, the culture supernatants were changed to fresh media. On the fourth day post-infection, culture supernatants were collected for detection of p24 antigen by ELISA. […] Then, the culture supernatants were changed to fresh media. On the fourth day post-infection, the culture supernatants were discarded and fresh media were complemented again. The supernatants were collected on the seventh day post-infection and tested for p24 antigen by ELISA as previously described. The percent inhibition of p24 production was calculated.

HIV-1Bal (subtype B, R5) = details: read-out: IC50, inhibition of infection by HIV-1Bal; M7 cells, 100 TCID50, p24 ELISA day 7; triplicate, repeated twice
Source text: as §1

N36 (gp41 NHR peptide) = molecular target: T2, N36 (gp41 NHR peptide) (Human immunodeficiency virus type 1 group M subtype B, UniProt P04578); assay: CD spectroscopy and thermal midpoint analysis of peptide/N36 complexes; type: physicochemical, HIV-1; details: for Tm of complex with N36: CD thermal denaturation at 222 nm, 4 to 98 °C, 5 °C/min, 10 μM in PBS pH 7.2; for α-helix content of complex with N36: CD, peptide/N36 mixture 10 μM in PBS pH 7.2, 4 °C
T2 construct: gp41 NHR (“N36”, 546-581); made in house; host or cells: chemical solid-phase FMOC synthesis
T2 sequence (P04578 546-581): as above
Procedure: Briefly, each peptide or peptide mixture was dissolved in phosphate-buffered saline (PBS: 50 mM sodium phosphate and 150 mM NaCl, pH 7.2) at the final concentration of 10 μM and incubated at 37 °C for 30 min before cooling down to 4 °C. The CD spectra of each sample were acquired on a Jasco spectropolarimeter (Model J-815, Jasco Inc., Japan) at 4 °C using a 5 nm bandwidth, 0.1 nm resolution, 0.1 cm path length and an average time of 5.0 sec. Spectra were corrected by the subtraction of a blank corresponding to the solvent composition of each sample. Thermal midpoint analysis was used to determine the temperature at which 50% of the 6-HB formed by the CHR and NHR would decompose. It was monitored at 222 nm from 4 °C to 98 °C by applying a thermal gradient of 5 °C/min. The melting curve was smoothed and the midpoint of the thermal unfolding transition (Tm) values was calculated using Jasco software utilities as described above.

[4] = test system: HIV-1IIIB (subtype B, X4); assay: Inhibition of HIV-1 IIIB infection by peptides in the presence of sera from HIV-1-infected patients; type: cell-based; details: for Fold change of IC50, HPS-1: HPS-1 relative to N; for Fold change of IC50, HPS-2: HPS-2 relative to N; for Fold change of IC50, HPS-3: HPS-3 relative to N; for Fold change of IC50, HPS-4: HPS-4 relative to N; for Fold change of IC50, HPS-5: HPS-5 relative to N; for IC50: MT-2 cells, triplicate, mean ± SD
Procedure: Inhibition of peptides on HIV-1IIIB (subtype B, X4)infection in the presence of HIV-1-infected patients’ sera was determined as previously described. Briefly, each peptide was mixed with serially diluted serum from an HIV-1-infected patient at room temperature for 30 min. Next, the mixture of peptide/serum and HIV-1 (100 TCID50) were added to MT-2 cells (1 × 10^5/ml) in RPMI 1640 medium containing 10% FBS. After incubation at 37 °C overnight, the culture supernatants were replaced with fresh culture medium.

[5] = test system: T20-resistant HIV-1 variant V38E/N42S; type: cell-based
92UG029 (A) = details: read-out: IC50 (nM), infection by primary isolate 92UG029 (A); primary HIV-1 isolate, subtype A
92UG024 (D) = type: cell-based; details: primary HIV-1 isolate, subtype D; read-out: IC50 (nM), infection by primary isolate 92UG024 (D)
[6] = test system: T20-resistant HIV-1 variant V38A/N42T; type: cell-based
92TH009 (A/E) = details: read-out: IC50 (nM), infection by primary isolate 92TH009 (A/E); primary HIV-1 isolate, subtype A/E
94US_33931N (B) = details: read-out: IC50 (nM), infection by primary isolate 94US_33931N (B); primary HIV-1 isolate, subtype B
BCF020 (Group O) = details: read-out: IC50 (nM), infection by primary isolate BCF020 (Group O), primary HIV-1 isolate
93BR020 (F) = type: cell-based; details: primary HIV-1 isolate, subtype F; read-out: IC50 (nM), infection by primary isolate 93BR020 (F)
in vivo = details: male, Sprague-Dawley (SD), rat, plasma, iv, 1 mg/kg
NP1525 (A/E) = type: cell-based; details: primary HIV-1 isolate, subtype A/E; read-out: IC50 (nM), infection by primary isolate NP1525 (A/E)
93IN101 (C) = details: read-out: IC50 (nM), infection by primary isolate 93IN101 (C); primary HIV-1 isolate, subtype C
[7] = test system: T20-resistant HIV-1 variant V38A/N42D; type: cell-based
[8] = intravenous 1 mg/kg, male SD rats, n = 2; plasma by sandwich ELISA; PK Solver
[9] = test system: T20-resistant HIV-1 variant N42T/N43K; type: cell-based
[10] = test system: T20-resistant HIV-1 variant V38A; type: cell-based
[11] = in presence of serum of HIV-1-infected patient HPS-1, read-out: IC50 (nM), HIV-1 IIIB infection, HPS-1
[12] = in presence of serum of HIV-1-infected patient HPS-2, read-out: IC50 (nM), HIV-1 IIIB infection, HPS-2
[13] = in presence of serum of HIV-1-infected patient HPS-3, read-out: IC50 (nM), HIV-1 IIIB infection, HPS-3
[14] = in presence of serum of HIV-1-infected patient HPS-4, read-out: IC50 (nM), HIV-1 IIIB infection, HPS-4
[15] = in presence of serum of HIV-1-infected patient HPS-5, read-out: IC50 (nM), HIV-1 IIIB infection, HPS-5

COc1ccc(S(=O)(=O)O)cc1N=Nc1c(S(=O)(=O)O)cc2cc(Nc3nc(Nc4ccccc4)nc(Nc4cc(C)c(N=Nc5cc(S(=O)(=O)O)cc6cc(S(=O)(=O)O)cc(O)c56)cc4OC)n3)ccc2c1O [ADS-J1, reference compound]
IC50 [1]: 2.75 µM

CC[C@H](C)[C@H](NC(=O)[C@H](CO)NC(=O)[C@H](CCC(=O)O)NC(=O)[C@H](CCC(=O)O)NC(=O)[C@H](CCC(N)=O)NC(=O)[C@H](CCCCN)NC(=O)[C@H](CCCCN)NC(=O)[C@@H](NC(=O)[C@H](CCC(N)=O)NC(=O)[C@H](CCC(=O)O)NC(=O)[C@H](CCC(=O)O)NC(=O)[C@@H](NC(=O)[C@H](CCCCN)NC(=O)[C@H](CCCCN)NC(=O)[C@@H](NC(=O)[C@H](CC(C)C)NC(=O)[C@H](CCC(=O)O)NC(=O)[C@H](CCC(=O)O)NC(=O)[C@H](CO)NC(=O)[C@H](CCCCN)NC(=O)[C@H](CCCCN)NC(=O)[C@@H](NC(=O)[C@H](CC(C)C)NC(=O)[C@H](CCC(=O)O)NC(=O)[C@H](CCC(=O)O)NC(=O)[C@@H](NC(=O)[C@H](CCC(=O)O)NC(=O)[C@H](CCCNC(=N)N)NC(=O)[C@H](CC(=O)O)NC(=O)[C@H](Cc1c[nH]c2ccccc12)NC(=O)[C@H](CCC(=O)O)NC(=O)[C@H](CCSC)NC(=O)[C@H](Cc1c[nH]c2ccccc12)NC(C)=O)[C@@H](C)CC)[C@@H](C)CC)[C@@H](C)CC)[C@@H](C)CC)[C@@H](C)CC)C(=O)N[C@@H](CCCCN)C(=O)N[C@@H](CCCCN)C(N)=O [AP1] (Ac-WMEWDREIEELIKKSEELIKKIEEQIKKQEESIKK-NH2)
reactivity with antibodies in sera from five HIV-1-infected patients [2]: none of the three artificial peptides AP1, AP2 and AP3 was recognized
IC50 [3]: 0.0863 µM
IC50 (HIV-1Bal (subtype B, R5)): 0.396 µM
Tm of complex with N36 (N36 (gp41 NHR peptide)): 59.6 ^oC
α-helix content of complex with N36 (N36 (gp41 NHR peptide)): 65.36%
Fold change of IC50, HPS-1 [4]: 0.8
Fold change of IC50, HPS-2 [4]: 0.6
Fold change of IC50, HPS-3 [4]: 1.5
Fold change of IC50, HPS-4 [4]: 0.8
Fold change of IC50, HPS-5 [4]: 0.6
IC50 [4, 11]: 87.4 ± 54.8 nM
IC50 [4, 12]: 70.1 ± 44.9 nM
IC50 [4, 13]: 165 ± 26.6 nM
IC50 [4, 14]: 89.5 ± 20.6 nM
IC50 [4, 15]: 68.5 ± 22.6 nM

CC[C@H](C)[C@H](NC(=O)[C@H](CO)NC(=O)[C@H](CCC(=O)O)NC(=O)[C@H](CCC(=O)O)NC(=O)[C@H](CCC(N)=O)NC(=O)[C@H](CCCCN)NC(=O)[C@H](CCCCN)NC(=O)[C@@H](NC(=O)[C@H](CCC(N)=O)NC(=O)[C@H](CCC(=O)O)NC(=O)[C@H](CCC(=O)O)NC(=O)[C@@H](NC(=O)[C@H](CCCCN)NC(=O)[C@H](CCCCN)NC(=O)[C@@H](NC(=O)[C@H](CC(C)C)NC(=O)[C@H](CCC(=O)O)NC(=O)[C@H](CCC(=O)O)NC(=O)[C@H](CO)NC(=O)[C@H](CCCCN)NC(=O)[C@H](CCCCN)NC(=O)[C@@H](NC(=O)[C@H](CC(C)C)NC(=O)[C@H](CCC(=O)O)NC(=O)[C@H](CCC(=O)O)NC(=O)[C@@H](NC(=O)[C@H](CCCCN)NC(=O)[C@H](CCCCN)NC(=O)[C@H](CC(=O)O)NC(=O)[C@H](Cc1c[nH]c2ccccc12)NC(=O)[C@H](CCC(=O)O)NC(=O)[C@H](CCC(=O)O)NC(=O)[C@H](Cc1c[nH]c2ccccc12)NC(C)=O)[C@@H](C)CC)[C@@H](C)CC)[C@@H](C)CC)[C@@H](C)CC)[C@@H](C)CC)C(=O)N[C@@H](CCCCN)C(=O)N[C@@H](CCCCN)C(N)=O [AP2] (Ac-WEEWDKKIEELIKKSEELIKKIEEQIKKQEESIKK-NH2)
IC50 [5]: 87.4 ± 5.26 nM
IC50 (92UG029 (A)): 39.9 ± 4.2 nM
IC50 (92UG024 (D)): 34.5 ± 2.3 nM
reactivity with antibodies in sera from five HIV-1-infected patients [2]: none of the three artificial peptides AP1, AP2 and AP3 was recognized
IC50 [6]: 262 ± 5.63 nM
IC50 (92TH009 (A/E)): 50 ± 4.5 nM
IC50 (94US_33931N (B)): 38 ± 12.5 nM
IC50 (BCF020 (Group O)): 47.1 ± 2.1 nM
IC50 [3]: 0.0231 µM
IC50 (HIV-1Bal (subtype B, R5)): 0.05 µM
IC50 (93BR020 (F)): 42.7 ± 1.4 nM
MRT (in vivo): 7.57 h
half-life (in vivo): 5.25 h
IC50 (NP1525 (A/E)): 65.6 ± 10.9 nM
IC50 (93IN101 (C)): 35.6 ± 0.9 nM
Tm of complex with N36 (N36 (gp41 NHR peptide)): 82.3 ^oC
α-helix content of complex with N36 (N36 (gp41 NHR peptide)): 69.51%
Fold change of IC50, HPS-1 [4]: 0.5
Fold change of IC50, HPS-2 [4]: 0.7
Fold change of IC50, HPS-3 [4]: 1.7
Fold change of IC50, HPS-4 [4]: 0.8
Fold change of IC50, HPS-5 [4]: 1.5
IC50 [4, 11]: 24.3 ± 10.2 nM
IC50 [4, 12]: 30.3 ± 4.2 nM
IC50 [4, 13]: 78.3 ± 8.6 nM
IC50 [4, 14]: 35.1 ± 2.3 nM
IC50 [4, 15]: 69.3 ± 3.2 nM
IC50 [7]: 63.5 ± 6.37 nM
Cmax [8]: 667.43 µg/mL
IC50 [9]: 72.7 ± 7.53 nM
IC50 [10]: 41.4 ± 8.65 nM

Enfuvirtide
IC50 [5]: > 2000 nM
IC50 (92UG029 (A)): 8.6 ± 1.7 nM
IC50 (92UG024 (D)): 15.5 ± 3.5 nM
IC50 [6]: > 5000 nM
IC50 (92TH009 (A/E)): 14.2 ± 12.4 nM
IC50 (94US_33931N (B)): 16.2 ± 2.8 nM
IC50 (BCF020 (Group O)): 30.8 ± 0.5 nM
IC50 [3]: 0.0136 µM
IC50 (HIV-1Bal (subtype B, R5)): 0.0302 µM
IC50 (93BR020 (F)): 24.5 ± 3.6 nM
IC50 (NP1525 (A/E)): 29.7 ± 6.9 nM
IC50 (93IN101 (C)): 16.8 ± 6.5 nM
IC50 [4, 11]: 128 ± 20.5 nM
IC50 [4, 12]: 134 ± 44.9 nM
IC50 [4, 13]: 157 ± 22 nM
IC50 [4, 14]: > 200 nM
IC50 [4, 15]: > 200 nM
IC50 [7]: > 2000 nM
IC50 [9]: > 2000 nM
IC50 [10]: 943 ± 46.4 nM

From publication PMC4541410 (Scientific Reports, 2015)
